Results reported in US8604167B2, “CD133 epitopes” (ImmunoCellular Therapeutics, Ltd., priority 2009, dated 2013).

Key:
[1] = system: CD8+ T cells; assay: Peptide-HLA-A2 dimer staining of CTL stimulated with peptide-pulsed DC; type: cell-based, human; conditions: for peptide dimer staining relative to background, in words: summary of Table 7
Procedure: (§1) HLA-A2 positive PBMC isolated by leukapheresis from two healthy human subjects were obtained from HemaCare Corporation (Van Nuys, Calif.). The PBMC from each subject were used to prepare CD8+ T cells and autologous dendritic cells for stimulation with immunogenic peptides. Following stimulation, the T cells were subjected to functional assays.
(§2) CD8+ T cells were prepared from each subject's PBMC by positive selection using CD8 MicroBeads (Miltenyi Biotec, Bergisch Gladbach, Germany), according to the manufacturer's instructions.
(§3) Autologous DC were prepared from adherent PBMC (2×10^6 cells/ml) cultured for 5 days in the presence of 500 IU/ml granulocyte macrophage colony-stimulating factor (Leucomax; Schering-Plough, Kenilworth, N.J.) and 500 IU/ml IL-4 (R&D Systems, Minneapolis, Minn.) in complete medium [RPMI 1640 supplemented with 10% heat-inactivated human AB serum, […] L-glutamine (Invitrogen) and antibiotics]. On day 5, DC maturation was induced by addition of 50 ng/ml TNF-α. On day 7, the mature DC were collected and pulsed with 20 μg/ml peptide for 4 hours at 20° C. Peptide-pulsed DC not used immediately were frozen for later use.
The peptide pulsed matured DC were diluted to 3×10^5 cells/mL in CTL complete medium and irradiated at 2800 Rads. The initial in vitro stimulation was performed at a DC:T cell ratio of 1:5 by plating 100 μL/well of each batch of DC into a 96 well round bottom tissue culture plate (3×10^4 DC/well). One plate was prepared per peptide. To all wells, 100 μL of the CD8+ enriched T cell population was added at 1.5×10^6 cells/mL was added, resulting in a final concentration of 1.5×10^5 T-cells/well. Plates were incubated at 37° C., 5% carbon dioxide, and high humidity.
On days 7 and 14, cryopreserved peptide pulsed mature DC were thawed and used to restimulate the T-cells. Cryopreserved samples of each peptide pulsed DC batch were removed from liquid nitrogen and thawed rapidly in a 37° C. water-bath. Samples were diluted at least 1:10 with AIM V medium (Invitrogen, Carlsbard, Calif.). Samples were washed twice by centrifugation at 400 g for 7 minutes, and representative samples were evaluated for cell concentration and viability. Each DC batch was diluted to 3×10^5 cells/mL in CTL complete medium containing 20 U/mL IL-2, 10 ng/mL IL-7, and 2 μg/mL of the specific peptide, and the DC were irradiated with 2800 Rads. In vitro stimulation plates were removed carefully from the incubator and 90 μL of supernatant (no cells) were removed from each well. To each well, 100 μL of the appropriate DC batch was added. Plates were then incubated further at 37° C., 5% carbon dioxide, and high humidity.
After the second in vitro stimulation, the plates were checked daily for T-cell proliferation. When required, plates were split (one plate will become two plates) to avoid overgrowth of the CTL. […] The plates were mixed to ensure a homogenous population, then 90 μL of each CTL well was transferred into a new 96 well U bottomed plate. When splitting was performed within 3 days of the last in vitro stimulation, 100 μL of CTL complete medium containing 20 U/mL IL-2 and 10 ng/mL IL-7 was added. If splitting was performed later than 3 days from the last in vitro stimulation, 100 μL of complete CTL medium containing 40 U/mL IL-2 and 20 ng/mL IL-7 was added. Split plates were returned to the incubator at 37° C., 5% carbon dioxide, and high humidity.
On day 21, the T cells were stimulated a fourth time. The process described for in vitro stimulations 2-3 was repeated with the exception that IL-2 was replaced with 25 ng/mL IL-15.
Stimulated CTL were assayed for staining using peptide-HLA-A2 dimers. Cells were collected 19 days after the third stimulation (subject 1) or 6 days after the fourth stimulation (subjects 1 and 2).

[2] = system: CD8+ T cells; assay: IFN-γ ELISPOT of CTL stimulated with peptide-pulsed DC; type: cell-based, human; design: key to ELISPOT IFN-γ spots vs negative control: ++: Wells that clearly had more spots than the negative control were indicated as positive
Procedure: as §1, §2
as §3, with “use. […]” for “use.”
On days 7 and 14, cryopreserved peptide pulsed mature DC were thawed and used to restimulate the T-cells. […] Samples were washed twice by centrifugation at 400 g for 7 minutes, and representative samples were evaluated for cell concentration and viability. […]

[3] = biological target: HLA-A*0201 (Homo sapiens, UniProt P04439, D140Y/D185E/D98H/E176V/E277Q/G131W/G231S/I119V/I121R/I166T/I218V/L300P/L318F/N151K/N90K/P208A/P217A/Q86G/Q94H/R138H/R169H/T345S); assay: REVEAL MHC binding assay, HLA-A*0201; conditions: HLA-A*0201 binding, relative to positive control peptide
Excerpt: Fifty-five of the candidate peptides were assembled with HLA-A*0201 and analyzed for MHC binding to determine their level of incorporation into MHC molecules using the REVEAL™ MHC binding assay (ProImmune Ltd., Oxford, UK). Binding to MHC molecules was compared to that of two known T-cell epitopes: an intermediate control peptide and a positive control peptide with weak and very strong binding properties, respectively. Eleven peptides bound to HLA-A*0201 as well or better than the positive control, as indicated on Table 5.

Row | % Positive Control [3] | Substance | percentages of cells that stained positive (above background) for both dimer and CD8 ([1]; Subject 1, 3rd stim) | percentages of cells that stained positive (above background) for both dimer and CD8 ([1]; Subject 1, 4th stim) | percentages of cells that stained positive (above background) for both dimer and CD8 ([1]; Subject 2, 4th stim) | peptide dimer staining relative to background, in words [1] | ELISPOT IFN-γ spots vs negative control ([2]; Subject 2, 4th stim) | ELISPOT result in words ([2]; subject 3 (so in the source))
1 |  | 11 (YLQWIEFSI; listed as Homo sapiens) [compound 11] | 38.64% | 20.74% | 19.39% | stained strongly above background | ++ | clearly positive
2 | 163.06% | 19 (SQLNSNPEL; listed as Homo sapiens) [compound 19] |  |  |  |  |  | 
3 |  | 20 (GLLERVTRI; listed as Homo sapiens) [compound 20] | 0.27% | −0.41% | −0.32% | indistinguishable from background |  | 
4 |  | 21 (FLLPALIFA; listed as Homo sapiens) [compound 21] | 20.43% | 13.23% | 21.18% | stained strongly above background |  | 
5 |  | 28 (ILSAFSVYV; listed as Homo sapiens) [compound 28] | 4.15% | 0.12% | 14.08% | stained moderately above background |  | 
